Patent US9888689B2, “Compositions containing a pyripyropene insecticide and an adjuvant” (BASF SE, priority 2010, dated 2018)

Legend:
[1] = Stability of crystalline hydrate forms of compound of formula I; type: physicochemical
Source text: As pointed out above, a further aspect of the present invention relates to the hydrate B of the compound of formula I. Form B is a non-stoichiometric hydrate of the compound of formula I. The typical water content is in the range from 7.5 to 9 wt % and in particular about 8.5 wt %, i.e. 8.5±0.2 wt %. The water content can be determined by thermo-gravimetric analysis (TGA).

[2] = tested on: larvae of Helicoverpa zea; conditions: cited from earlier work
Tenebrio molitor L = conditions: cited from earlier work
[3] = tested on: Plutella xylostella L larvae; conditions: cited from earlier work

C[C@]1(COC(=O)C2CC2)[C@@H]2C[C@H](O)[C@@]3(C)Oc4cc(-c5cccnc5)oc(=O)c4[C@H](O)[C@@H]3[C@@]2(C)CC[C@@H]1OC(=O)C1CC1 [Form B]
conversion of the hydrate form ([1]; dried at elevated temperatures, e.g. >50 °C): slowly converts into amorphous material
stability of the hydrate form ([1]; room temperature, in contact with aqueous solvent or water or at high degrees of humidity, e.g. 90%): stable
conversion of the hydrate form ([1]; when the mother liquor is removed or humidity is reduced): slowly converts into form C

C[C@]1(COC(=O)C2CC2)[C@@H]2C[C@H](O)[C@@]3(C)Oc4cc(-c5cccnc5)oc(=O)c4[C@H](O)[C@@H]3[C@@]2(C)CC[C@@H]1OC(=O)C1CC1 [Form C]
stability of the hydrate form ([1]; ambient conditions): stable at ambient conditions over weeks and month

CC(=O)OC[C@@]1(C)[C@@H]2C[C@H](OC(C)=O)[C@@]3(C)Oc4cc(-c5cccnc5)oc(=O)c4[C@H](O)[C@@H]3[C@@]2(C)CC[C@@H]1OC(C)=O [Pyripyropene A]
insecticidal activity [2]: insecticidal activity
insecticidal activity (Tenebrio molitor L): insecticidal activity
insecticidal activity [3]: insecticidal activity
